US10857180B2, “Pharmaceutical composition for improving health, cure abnormalities and degenerative disease, achieve anti-aging effect of therapy and therapeutic effect on mammals and method thereof” (priority 2014, dated 2020)
Values joined by “and” are separate entries in the source; they are usually repeats but may differ in a detail not shown here. Equal values may be shown once. Marks after values point to notes of the source that are not given here.

Legend:
[1] = test system: mouse L1210 leukemia; test: Mouse L1210 leukemia model; type: in vivo
Experimental: The efficacy of the ^64Zne aspartate composition with respect to growth and metastatic activity of the experimental tumor (strain of mouse L1210 leukemia) was assessed in the experiment. […] To inoculate the strain, tumor cells derived from ascitic fluid were placed in normal saline solution, the cellularity of suspension was determined using a hemocytometer and adjusted to a concentration of 1×10^6 cells/ml with saline solution. The tumor was transplanted by injecting 250 μl of the tumor cell suspension (0.25×10^6 cells/mouse) into abdominal cavities of the animals. 80 male BDFi mice at the age of 8-10 weeks, weighing 18-22 g were used in the experiment.
In the experiment, 0.25×10^6 cells of mouse L1210 leukemia in 0.3 ml of saline solution were injected in the peritoneal cavities of the BDFi mice. The agent according to the invention was dissolved in deuterium-depleted water (deuterium-depleted water Langvey) and given to the experimental animals from the first day after the inoculation of the tumor cells. The solution composition comprising ^64Zne aspartate and deuterium-depleted water was injected intraperitoneally using a microinjection syringe at doses of 25 μg/mouse, 50 μg/mouse and 75 pig/mouse every other day (7 times during 14 days) in a volume of 0.5 ml/mouse. The said agent was also injected intravenously at a dose of 25 μg/mouse every other day (7 times during 14 days) in a volume of 0.2 ml/mouse. […] At day 8, 13 and 18 after inoculation of tumor cells, the whole ascites fluid was recovered from the animals and the total number of live/dead cells in each mouse was determined. Some mice were also used to evaluate their average life span in the experiment.
Clinical observations were carried out as described in Example 7. The animals were divided into groups as follows (16 mice per group): • 1. Group No 1: control group, L1210+solvent (deuterium-depleted water); • 2. Group No 2: L1210+^64Zne aspartate administered i.v. at a dose of 25 μg/mouse; • 3. Group No 3: L1210+^64Zne aspartate administered i.p. at a dose of 25 μg/mouse; • 4. Group No 4: L1210+^64Zne aspartate administered i.p. at a dose of 50 μg/mouse; • 5. Group No 5: L1210+^64Zne aspartate administered i.p. at a dose of 75 μg/mouse.
^64Zne aspartate was diluted in deuterium-depleted water and injected, starting from the first day of the tumor transplantation, 7 times every other day during 14 days in a volume of 0.5 ml/mouse using an i.p. route of administration and in a volume of 0.2 ml/mouse using an i.v. route of administration. The animals of the control group received intraperitoneal injections with 0.5 ml/mouse of deuterium-depleted water.
The dynamics of formation of ascites in the control and experimental groups was assessed visually using a 10-point scale (one point was 0.5 cm of the mean diameter of the mouse abdomen filled with ascites).
In addition, at 8, 13 and 18 days after the mice were inoculated with the tumor cells, all ascitic fluid was removed from the abdomens in all animals from each group by washing their peritoneal cavities with saline solution and live and dead tumor cells were counted using the traditional vital dye trypan blue (HyClon, USA) and a hemocytometer.
The number of cells was determined using the following formula: X=((a)/80)×10^6, where X is the number of cells in 1 ml and a is the number of cells counted in 80 small squares of the hemocytometer.
50% of the mice in each group were used to assess their average length of survival in the experiment. The percentage change in the lifespan of the experimental animals was calculated using the following formula: (c−d)/[…]×100, where: c is the average lifespan in the experimental group and d is the average lifespan in the control group. The total time of observation of the lifespan of the experimental animals was 60 days after the tumor inoculation.

[2] = test system: acute promyelocyte leukemia (HL-60 line) cells; test: Immunocytochemical analysis (H-Score) of HL-60 cells; type: cell-based, human
Experimental: Materials and methods for leukemia cell lines HL-60 and Namalva and cell culture conditions will now be described. Initial HL-60 and Namalva cells were cultured in complete RPMI 1640 medium (PAA) (PAA, Austria) supplemented with 10% fetal calf serum (PAA) and incubated in 5% CO2 humidified atmosphere at 37° C. The culture medium was replaced in 2 to 3 days and the cells were passaged in 4 to 5 days.
In carrying out the immunocytochemical (ICC) assay, cells on microscope glasses (cytospin preparations) were fixed in the solution (methanol+acetone (1:1)) for 2 hours at t−20° C. and then incubated with a 1% solution of bovine serum albumin (BSA) for 20 minutes.
After the immunocytochemical reaction, the preparations were rinsed with water and counterstained with hematoxylin and eosin for 15 to 30 seconds. The results were analyzed by a quantitative estimation of cells with the marker expression (increased brown color of cells corresponded to a higher degree of expression of the marker) using a light microscope and assessed using the classical H-Score method: S=1×A+2×B+3×C, where S is the H-Score index the values of which are within the scope of 0 (protein is not detectable) to 300 (high-level expression in 100% of the cells), A is a percentage of weakly stained cells, B is the percentage of moderately stained cells, and C the percentage of strongly stained cells.

NC(CC(=O)[O-])C(=O)[O-].[64Zn+2] (racemic) [^64Zne aspartate, ^64Zn aspartate (racemic)]
decrease in the number of live cells in the peritoneal cavities ([1]; 50 μg/mouse or 75 μg/mouse, after 3 injections): 100% | Number of live cells/mouse (M ± m) ([1]; day 8, i.p. 25 μg/mouse): 335.8 × 10^6 | Percentage of dead tumor cells in ascites fluid ([1]; day 8, i.p. 25 μg/mouse): below 2% | Volume of ascites (M ± m) ([1]; day 8, i.p. 25 μg/mouse): 0.8 ± 0.8 ml/mouse | number of cells in the ascites of the one mouse with tumor cells ([1]; day 8, i.p. 25 μg/mouse, 1 of 2 mice): indicators (671. 6 × 10^6). No | Number of live cells/mouse (M ± m) ([1]; day 8, i.p. 50 μg/mouse): 0** | Percentage of dead tumor cells in ascites fluid ([1]; day 8, i.p. 50 μg/mouse): 0% | Volume of ascites (M ± m) ([1]; day 8, i.p. 50 μg/mouse): 0* ml/mouse | Number of live cells/mouse (M ± m) ([1]; day 8, i.p. 75 μg/mouse): 0** | Percentage of dead tumor cells in ascites fluid ([1]; day 8, i.p. 75 μg/mouse): 0% | Volume of ascites (M ± m) ([1]; day 8, i.p. 75 μg/mouse): 0* ml/mouse | Number of live cells/mouse (M ± m) ([1]; day 8, i.v. 25 μg/mouse): 902 × 10^6 | Percentage of dead tumor cells in ascites fluid ([1]; day 8, i.v. 25 μg/mouse): below 2% | Volume of ascites (M ± m) ([1]; day 8, i.v. 25 μg/mouse): 1.2 ± 0.3 ml/mouse | Number of live cells/mouse (M ± m) ([1]; day 13, i.p. 25 μg/mouse): 532.7 × 10^6 | Percentage of dead tumor cells in ascites fluid ([1]; day 13, i.p. 25 μg/mouse): below 3% | Volume of ascites (M ± m) ([1]; day 13, i.p. 25 μg/mouse): 1.9 ± 1.5 ml/mouse | Number of live cells/mouse (M ± m) ([1]; day 13, i.p. 50 μg/mouse): 0** | Percentage of dead tumor cells in ascites fluid ([1]; day 13, i.p. 50 μg/mouse): 0% | Volume of ascites (M ± m) ([1]; day 13, i.p. 50 μg/mouse): 0* ml/mouse | Number of live cells/mouse (M ± m) ([1]; day 13, i.p. 75 μg/mouse): 0** | Percentage of dead tumor cells in ascites fluid ([1]; day 13, i.p. 75 μg/mouse): 0% | Volume of ascites (M ± m) ([1]; day 13, i.p. 75 μg/mouse): 0* ml/mouse | Number of live cells/mouse (M ± m) ([1]; day 13, i.v. 25 μg/mouse): 1322 × 10^6 | Percentage of dead tumor cells in ascites fluid ([1]; day 13, i.v. 25 μg/mouse): below 3% | Volume of ascites (M ± m) ([1]; day 13, i.v. 25 μg/mouse): 6 ± 1.5 ml/mouse | amount of ascites less than control ([1]; day 15, 50 μg): 87% | amount of ascites less than control ([1]; day 15, 75 μg): 90% | amount of ascites less than control ([1]; day 15, i.p. 25 μg/mouse): 60% | Average lifespan of animals (M ± m) ([1]; i.p. 25 μg/mouse): 28.1 ± 4.7 days | Increase in the lifespan of experimental animals ([1]; i.p. 25 μg/mouse): 41.3% | Number of animals in the group with tumor ([1]; i.p. 25 μg/mouse): 11 pc | Number of animals in the group without tumor ([1]; i.p. 25 μg/mouse): 5 pc | Tumor-free animals ([1]; i.p. 25 μg/mouse x7): 31.2% | Volume of ascites in mice ([1]; i.p. 25 μg/mouse x7, day 8): 0.6 ± 0.3 points | Volume of ascites in mice ([1]; i.p. 25 μg/mouse, day 10): 1.1 ± 0.5 points | Volume of ascites in mice ([1]; i.p. 25 μg/mouse, day 13): 2.5± 0.6 points | Volume of ascites in mice ([1]; i.p. 25 μg/mouse, day 15): 4.1 points and 4.1 ± 1.1 points | Volume of ascites in mice ([1]; i.p. 25 μg/mouse, day 18): 4.8 ± 1.4 points | Volume of ascites in mice ([1]; i.p. 25 μg/mouse, day 20): 4.6 ± 1.8 points | Volume of ascites in mice ([1]; i.p. 25 μg/mouse, day 22): 3.5 ± 2.2 points | Volume of ascites in mice ([1]; i.p. 25 μg/mouse, day 26): 2.5 ± 2.5 points | Volume of ascites in mice ([1]; i.p. 25 μg/mouse, day 28): 0 points | Average lifespan of animals (M ± m) ([1]; i.p. 50 μg/mouse): 41.6 ± 8.7 days | Increase in the lifespan of experimental animals ([1]; i.p. 50 μg/mouse): 60.3% | Number of animals in the group with tumor ([1]; i.p. 50 μg/mouse): 5 pc | Number of animals in the group without tumor ([1]; i.p. 50 μg/mouse): 11 pc | Tumor-free animals ([1]; i.p. 50 μg/mouse x7): 68.8% | Volume of ascites in mice ([1]; i.p. 50 μg/mouse x7, day 8): 0* points | Volume of ascites in mice ([1]; i.p. 50 μg/mouse, day 10): 0* points | Volume of ascites in mice ([1]; i.p. 50 μg/mouse, day 13): 0.4 ± 0.2 points | Volume of ascites in mice ([1]; i.p. 50 μg/mouse, day 15): 1.3 ± 0.7 points | Volume of ascites in mice ([1]; i.p. 50 μg/mouse, day 15, listed as 64Zn aspartate): 1.3 points | Volume of ascites in mice ([1]; i.p. 50 μg/mouse, day 18): 1.1 ± 1.1 points | Volume of ascites in mice ([1]; i.p. 50 μg/mouse, day 20): 0 points | Volume of ascites in mice ([1]; i.p. 50 μg/mouse, day 22): 0 points | Volume of ascites in mice ([1]; i.p. 50 μg/mouse, day 26): 0 points | Volume of ascites in mice ([1]; i.p. 50 μg/mouse, day 28): 0 points | Average lifespan of animals (M ± m) ([1]; i.p. 75 μg/mouse): 55 ± 5 days | Increase in the lifespan of experimental animals ([1]; i.p. 75 μg/mouse): 70% | Number of animals in the group with tumor ([1]; i.p. 75 μg/mouse): 1 pc | Number of animals in the group without tumor ([1]; i.p. 75 μg/mouse): 15 pc | Tumor-free animals ([1]; i.p. 75 μg/mouse x7): 93.8% | Volume of ascites in mice ([1]; i.p. 75 μg/mouse x7, day 8): 0* points | Volume of ascites in mice ([1]; i.p. 75 μg/mouse, day 10): 0* points | Volume of ascites in mice ([1]; i.p. 75 μg/mouse, day 13): 0.4 ± 0.4 points | Volume of ascites in mice ([1]; i.p. 75 μg/mouse, day 15): 1 ± 1 points | Volume of ascites in mice ([1]; i.p. 75 μg/mouse, day 15, listed as 64Zn aspartate): 1 points | Volume of ascites in mice ([1]; i.p. 75 μg/mouse, day 18): 1.1 ± 1.1 points | Volume of ascites in mice ([1]; i.p. 75 μg/mouse, day 20): 0 points | Volume of ascites in mice ([1]; i.p. 75 μg/mouse, day 22): 0 points | Volume of ascites in mice ([1]; i.p. 75 μg/mouse, day 26): 0 points | Volume of ascites in mice ([1]; i.p. 75 μg/mouse, day 28): 0 points | Increase in the lifespan of experimental animals ([1]; i.v. 25 μg/mouse): 2.4% | Number of animals in the group without tumor ([1]; i.v. 25 μg/mouse): 0 pc | Tumor-free animals ([1]; i.v. 25 μg/mouse): 0% | Volume of ascites in mice ([1]; i.v. 25 μg/mouse x7, day 8): 3.3 ± 0.3 points | Number of animals in the group with tumor ([1]; i.v. 25 μg/mouse, 16 mice per group): 16 pc | Average lifespan of animals (M ± m) ([1]; i.v. 25 μg/mouse, 60 days observation): 16.9 ± 1.3 days | Volume of ascites in mice ([1]; i.v. 25 μg/mouse, day 10): 4.7 ± 0.4 points | Volume of ascites in mice ([1]; i.v. 25 μg/mouse, day 13): 7.7 ± 0.4 points | Volume of ascites in mice ([1]; i.v. 25 μg/mouse, day 15): 9.7 ± 0.3 points | Volume of ascites in mice ([1]; i.v. 25 μg/mouse, day 18): 8 ± 0.9 points | Volume of ascites in mice ([1]; i.v. 25 μg/mouse, day 20): 10 points | percentage of dead tumor cells in the ascites treated with the agent ([1]; mouse, in vivo): ≤ 5% | effect on the growth of mouse leukemia L1210 cells ([1]; series of intravenous injections): no effect

[39K+].[Cl-] [^39K]
amount of N-cadherin-positive cells [2]: in most cases increased | number of cells expressing ICAM ([2]; ^39K 2 and 0.5 mg/ml, ^64Zn 10 mcg/ml): reduction in the number of cells | level of expression of CD44 ([2]; especially in high doses): tendency to decrease in the level of expression
